One data set deals with S. cerevisiae. The experiment in a line: in vitro. The note with it: Saccharomyces cerevisiae. From the text: (§1) These tests included an IL-12 mouse model test to determine compound efficacy, verification of MIC50 for CP, cytotoxicity test for fibroblasts and yeast to determine potential toxic effects, a Human ether-a-go-go-related gene (hERG) test to determine potential cardiotoxicity, an AMES test tp determine mutagenic potential, a Safety Screen 44 test to determine common negative off-target drug interastion (Eurofins Cerep, SA, France), a cytochrome P450 (CYP) test to determine potential liver toxicity, a maximum tolerated dose, test, a Pharmacokinetics (PK) test to determine fate of the substance administered to a living organism tests for plasma stability in human and mouse, to measure the degradation of compound in plasma MClint and HClint test to determine in vitro intrinsic clearance for Mouse and Human, and kinetic solubility and plasma protein binding tests in mouse and human.

The next data set has as its system human fibroblast. As to the kind of experiment: in vitro.
From the text: as §1

The source of these data is US11083717B2, “Compositions and methods for drug sensitization of parasites” (The Texas A&M University System, priority 2015, dated 2021).

Each structure is given as a SMILES string. Read-outs that look alike come from different tables or passages of the source.

On to `CC(C)NC(=O)Nc1ccc(Oc2nc3cc(F)c(F)cc3s2)cc1` [NZ-382, 1-{4-[(5,6-difluoro-1,3-benzothiazol-2-yl)oxy]phenyl}-3-(propan-2-yl)urea], for which the “concentrations at which not toxic, S. cerevisiae cytotoxicity testing” value in the data set with S. cerevisiae lay in the range of 50 to 100 µM. The “concentrations at which not toxic, human fibroblast cytotoxicity testing” value with human fibroblast (human) is at least 100 µM.

As for `CNC(=O)Cc1ccc(Oc2nc3ccc(Cl)cc3s2)cc1` [NZ-383], in the data set with S. cerevisiae, the “concentrations at which not toxic, S. cerevisiae cytotoxicity testing” value is at least 100 µM. In addition, in the data set with human fibroblast, the “concentrations at which not toxic, human fibroblast cytotoxicity testing” value was at least 100 µM.

On to `CNC(=O)Cc1ccc(Oc2nc3ccc(F)cc3s2)cc1` [NZ-385, 2-{4-[(6-fluoro-1,3-benzothiazol-2-yl)oxy]phenyl}-N-methylacetamide], for which the “concentrations at which not toxic, S. cerevisiae cytotoxicity testing” value in the data set on S. cerevisiae was at least 100 µM. Also, in the data set with human fibroblast, the “concentrations at which not toxic, human fibroblast cytotoxicity testing” value was at least 100 µM.

`CC(C)NC(=O)N(C)c1ccc(Oc2nc3ccc(Cl)cc3s2)cc1` [NZ-388, 1-{4-[(6-chloro-1,3-benzothiazol-2-yl)oxy]phenyl}-1-methyl-3-(propan-2-yl)urea]: the “concentrations at which not toxic, S. cerevisiae cytotoxicity testing” value in the data set with S. cerevisiae was at least 100 µM. The “concentrations at which not toxic, human fibroblast cytotoxicity testing” value in the data set with human fibroblast was at least 100 µM.

With `CNC(=O)Cc1ccc(O)cc1Oc1nc2ccc(Cl)cc2s1` [NZ-390, 2-{2-[(6-chloro-1,3-benzothiazol-2-yl)oxy]-4-hydroxyphenyl}-N-methylacetamide], the “concentrations at which not toxic, S. cerevisiae cytotoxicity testing” value in the data set with S. cerevisiae was at least 100 µM. Besides, the “concentrations at which not toxic, human fibroblast cytotoxicity testing” value with human fibroblast (human) is at least 100 µM.

For `CC(C)NC(=O)Nc1ccc(Oc2nc3ccc(Cl)cc3s2)c[n+]1[O-]` [NZ-391, 1-{5-[(6-chloro-1,3-benzothiazol-2-yl)oxy]-1-oxo-1λ^5-pyridin-2-yl}-3-(propan-2-yl)urea], the “concentrations at which not toxic, S. cerevisiae cytotoxicity testing” value in the data set on S. cerevisiae is at least 100 µM. Also, in the data set with human fibroblast (human), the “concentrations at which not toxic, human fibroblast cytotoxicity testing” value is at least 100 µM.

As to `CNC(=O)Cc1ccc(Oc2nc3ccc(Cl)cc3s2)cc1OC` [NZ-392, 2-{4-[(6-chloro-1,3-benzothiazol-2-yl)oxy]-2-methoxyphenyl}-N-methylacetamide], the “concentrations at which not toxic, S. cerevisiae cytotoxicity testing” value in the data set with S. cerevisiae is at least 100 µM. The “concentrations at which not toxic, human fibroblast cytotoxicity testing” value with human fibroblast was at least 100 µM.

With `CC(C)NC(=O)Nc1ccc(Oc2nc3cc(Cl)c(Cl)cc3s2)cc1` [NZ-393, 1-{4-[(5,6-dichloro-1,3-benzothiazol-2-yl)oxy]phenyl}-3-(propan-2-yl)urea], in the data set with S. cerevisiae, the “concentrations at which not toxic, S. cerevisiae cytotoxicity testing” value was at least 100 µM. The “concentrations at which not toxic, human fibroblast cytotoxicity testing” value in the data set on human fibroblast was at least 100 µM.

Consider `CNC(=O)C(C)c1ccc(Oc2nc3cc(Cl)c(Cl)cc3s2)cc1` (stereo not shown) [NZ-394, 2-{4-[(5,6-dichloro-1,3-benzothiazol-2-yl)oxy]phenyl}-N-methylpropanamide], for which, in the data set with S. cerevisiae, the “concentrations at which not toxic, S. cerevisiae cytotoxicity testing” value was at least 100 µM. Moreover, the “concentrations at which not toxic, human fibroblast cytotoxicity testing” value in the data set with human fibroblast (human) was at least 100 µM.

`COC(=O)Cn1ccc(Oc2nc3ccc(Cl)cc3s2)cc1=O` [NZ-396, methyl 2-{4-[(6-chloro-1,3-benzothiazol-2-yl)oxy]-2-oxo-1,2-dihydropyridin-1-yl}acetate]: the “concentrations at which not toxic, S. cerevisiae cytotoxicity testing” value with S. cerevisiae was at least 100 µM. Further, the “concentrations at which not toxic, human fibroblast cytotoxicity testing” value with human fibroblast (human) is at least 100 µM.

For the molecule `O=C(O)Cn1ccc(Oc2nc3ccc(Cl)cc3s2)cc1=O` [NZ-397, 2-{4-[(6-chloro-1,3-benzothiazol-2-yl)oxy]-2-oxo-1,2-dihydropyridin-1-yl}acetic acid], the “concentrations at which not toxic, S. cerevisiae cytotoxicity testing” value in the data set with S. cerevisiae is at least 100 µM. Further, the “concentrations at which not toxic, human fibroblast cytotoxicity testing” value in the data set on human fibroblast was at least 100 µM.

On to `O=C(O)Cc1ccc(Oc2nc3cc(F)c(F)cc3s2)cc1` [NZ-399, 2-{4-[(5,6-difluoro-1,3-benzothiazol-2-yl)oxy]phenyl}acetic acid], for which the “concentrations at which not toxic, S. cerevisiae cytotoxicity testing” value in the data set with S. cerevisiae was at least 100 µM. The “concentrations at which not toxic, human fibroblast cytotoxicity testing” value with human fibroblast is at least 100 µM.

As to `CNC(=O)Cc1ccc(Oc2cnc3cc(Cl)ccc3n2)cc1O` [NZ-402, 2-{4-[(6-chloroquinoxalin-2-yl)oxy]-2-hydroxyphenyl}-N-methylacetamide], the “concentrations at which not toxic, S. cerevisiae cytotoxicity testing” value in the data set with S. cerevisiae is at least 100 µM. The “concentrations at which not toxic, human fibroblast cytotoxicity testing” value in the data set with human fibroblast was at least 100 µM.

Regarding `CC(C)NC(=O)Cn1ccc(Oc2nc3ccc(Cl)cc3s2)cc1=O` [NZ-404, 2-{4-[(6-chloro-1,3-benzothiazol-2-yl)oxy]-2-oxo-1,2-dihydropyridin-1-yl}-N-(propan-2-yl)acetamide], the “concentrations at which not toxic, S. cerevisiae cytotoxicity testing” value with S. cerevisiae was at least 100 µM. The “concentrations at which not toxic, human fibroblast cytotoxicity testing” value in the data set with human fibroblast (human) was at least 100 µM.

On to `CC(C)NC(=O)Cc1ccc(O)cc1Oc1nc2ccc(F)cc2s1` [NZ-406, 2-{2-[(6-fluoro-1,3-benzothiazol-2-yl)oxy]-4-hydroxyphenyl}-N-(propan-2-yl)acetamide], for which the “concentrations at which not toxic, S. cerevisiae cytotoxicity testing” value with S. cerevisiae was at least 100 µM. Moreover, the “concentrations at which not toxic, human fibroblast cytotoxicity testing” value in the data set on human fibroblast (human) was at least 100 µM.

`CC(C)NC(=O)Cc1ccc(Oc2nc3cc(F)c(F)cc3s2)cc1O` [NZ-407, 2-{4-[(5,6-difluoro-1,3-benzothiazol-2-yl)oxy]-2-hydroxyphenyl}-N-(propan-2-yl)acetamide]: the “concentrations at which not toxic, S. cerevisiae cytotoxicity testing” value in the data set on S. cerevisiae is at least 100 µM. Further, the “concentrations at which not toxic, human fibroblast cytotoxicity testing” value in the data set with human fibroblast (human) was at least 100 µM.

Take `CNC(=O)C(C)c1ccc(Oc2nc3ccc(F)cc3s2)cc1O` (stereo not shown) [NZ-408, 2-{4-[(6-fluoro-1,3-benzothiazol-2-yl)oxy]-2-hydroxyphenyl}-N-methylpropanamide]: the “concentrations at which not toxic, S. cerevisiae cytotoxicity testing” value in the data set on S. cerevisiae is at least 100 µM. In addition, the “concentrations at which not toxic, human fibroblast cytotoxicity testing” value in the data set with human fibroblast (human) is at least 100 µM.

Consider `CC(C)(C)OC(=O)Nc1ccc(Oc2nc3ccc(F)cc3s2)cc1` [NZ-412, tert-butyl N-{4-[(6-fluoro-1,3-benzothiazol-2-yl)oxy]phenyl}carbamate], for which, in the data set with S. cerevisiae, the “concentrations at which not toxic, S. cerevisiae cytotoxicity testing” value was at least 100 µM. Also, the “concentrations at which not toxic, human fibroblast cytotoxicity testing” value in the data set on human fibroblast (human) was at least 100 µM.

For `Nc1ccc(Oc2nc3ccc(F)cc3s2)cc1` [NZ-413, 4-[(6-fluoro-1,3-benzothiazol-2-yl)oxy]aniline], the “concentrations at which not toxic, S. cerevisiae cytotoxicity testing” value in the data set with S. cerevisiae is at least 100 µM. Moreover, the “concentrations at which not toxic, human fibroblast cytotoxicity testing” value in the data set on human fibroblast (human) was at least 100 µM.

For `CC(C)(C)OC(=O)NCCC(=O)Nc1ccc(Oc2nc3ccc(F)cc3s2)cc1` [NZ-414, tert-butyl N-[2-({4-[(6-fluoro-1,3-benzothiazol-2-yl)oxy]phenyl}carbamoyl)ethyl]carbamate], the “concentrations at which not toxic, S. cerevisiae cytotoxicity testing” value in the data set with S. cerevisiae is at least 100 µM. Moreover, the “concentrations at which not toxic, human fibroblast cytotoxicity testing” value in the data set with human fibroblast (human) is at least 100 µM.

With `CC(C)(C)OC(=O)NCC(=O)Nc1ccc(Oc2nc3ccc(F)cc3s2)cc1` [NZ-415, tert-butyl N-[({4-[(6-fluoro-1,3-benzothiazol-2-yl)oxy]phenyl}carbamoyl)methyl]carbamate], in the data set on S. cerevisiae, the “concentrations at which not toxic, S. cerevisiae cytotoxicity testing” value was at least 100 µM. Besides, in the data set on human fibroblast (human), the “concentrations at which not toxic, human fibroblast cytotoxicity testing” value is at least 100 µM.

Turning to `NCCC(=O)Nc1ccc(Oc2nc3ccc(F)cc3s2)cc1` [NZ-416, 3-amino-N-{4-[(6-fluoro-1,3-benzothiazol-2-yl)oxy]phenyl}propanamide], the “concentrations at which not toxic, S. cerevisiae cytotoxicity testing” value in the data set with S. cerevisiae is at least 100 µM. The “concentrations at which not toxic, human fibroblast cytotoxicity testing” value with human fibroblast (human) was at least 100 µM.

For `O=C(O)Cn1ccc(Oc2nc3ccc(F)cc3s2)cc1=O` [NZ-418, 2-{4-[(6-fluoro-1,3-benzothiazol-2-yl)oxy]-2-oxo-1,2-dihydropyridin-1-yl}acetic acid], the “concentrations at which not toxic, S. cerevisiae cytotoxicity testing” value with S. cerevisiae was at least 100 µM. Moreover, the “concentrations at which not toxic, human fibroblast cytotoxicity testing” value with human fibroblast (human) was at least 100 µM.

In the case of `CNC(=O)Cn1ccc(Oc2nc3ccc(F)cc3s2)cc1=O` [NZ-419, 2-{4-[(6-fluoro-1,3-benzothiazol-2-yl)oxy]-2-oxo-1,2-dihydropyridin-1-yl}-N-methylacetamide], in the data set on S. cerevisiae, the “concentrations at which not toxic, S. cerevisiae cytotoxicity testing” value is at least 100 µM. The “concentrations at which not toxic, human fibroblast cytotoxicity testing” value in the data set on human fibroblast (human) was at least 100 µM.

As to `CC(=O)Nc1ccc(Oc2nc3ccc(F)cc3s2)cc1` [NZ-420, N-{4-[(6-fluoro-1,3-benzothiazol-2-yl)oxy]phenyl}acetamide], the “concentrations at which not toxic, S. cerevisiae cytotoxicity testing” value with S. cerevisiae was at least 100 µM. Moreover, the “concentrations at which not toxic, human fibroblast cytotoxicity testing” value in the data set with human fibroblast (human) is at least 100 µM.

On to `O=C(O)Cc1c(F)cc(Oc2nc3ccc(Cl)cc3s2)cc1F` [NZ-458, 2-{4-[(6-chloro-1,3-benzothiazol-2-yl)oxy]-2,6-difluorophenyl}acetic acid], for which, in the data set with S. cerevisiae, the “concentrations at which not toxic, S. cerevisiae cytotoxicity testing” value is at least 100 µM. Moreover, the “concentrations at which not toxic, human fibroblast cytotoxicity testing” value with human fibroblast (human) is at least 100 µM.

With `O=C(Nc1ccc(Oc2nc3ccc(Cl)cc3s2)cc1)N1CCNCC1` [NZ-509, N-{4-[(6-chloro-1,3-benzothiazol-2-yl)oxy]phenyl}piperazine-1-carboxamide], in the data set with S. cerevisiae, the “concentrations at which not toxic, S. cerevisiae cytotoxicity testing” value was at least 100 µM. The “concentrations at which not toxic, human fibroblast cytotoxicity testing” value in the data set on human fibroblast (human) was at least 100 µM.

`CC(C(=O)N1CCN(C(C)C)CC1)c1ccc(Oc2nc3ccc(Cl)cc3s2)cc1` (stereo not shown) [NZ-510, 2-{4-[(6-chloro-1,3-benzothiazol-2-yl)oxy]phenyl}-1-[4-(propan-2-yl]piperazin-1-yl]propan-1-one]: the “concentrations at which not toxic, S. cerevisiae cytotoxicity testing” value in the data set on S. cerevisiae was at least 100 µM. Moreover, in the data set with human fibroblast (human), the “concentrations at which not toxic, human fibroblast cytotoxicity testing” value is at least 100 µM.

For the molecule `CC(C(=O)N1CCN(C2CC2)CC1)c1ccc(Oc2nc3ccc(Cl)cc3s2)cc1` (stereo not shown) [NZ-511, 2-{4-[(6-chloro-1,3-benzothiazol-2-yl)oxy]phenyl}-1-(4-cyclopropylpiperazin-1-yl)propan-1-one], in the data set on S. cerevisiae, the “concentrations at which not toxic, S. cerevisiae cytotoxicity testing” value was at least 100 µM. Moreover, the “concentrations at which not toxic, human fibroblast cytotoxicity testing” value with human fibroblast (human) was at least 100 µM.
